The test system of assay [1] is CXCR3. The assay is described as follows: CXCR3 expression in activated primary murine T cells (flow cytometry). The settings on record: anti-CD3/CD28 activated, 3 days, dose-dependent (0.32-1000 nM). The assay is classed as cell-based, B6 mice. The source says: To identify the top candidates whose effects on GvHD will be further tested in vivo, we next screened the WU derivatives by evaluating their functional inhibitory activity on the expression of CXCR3 in primary murine T cells activated by anti-CD3/CD28 beads. CXCR3 is a chemokine receptor and surrogate marker of IFNGR-JAK1/JAK2 signaling.
Figure 3 Inhibitory effect of WU derivatives on the expression of CXCR3 compared to commercially available JAK inhibitors in primary murine T cells. Primary murine T cells were isolated from B6 mice and treated with WU derivatives or known JAK inhibitors (in the order of doses of each drug from the left: 0, 0.32, 1.6, 8, 40, 200, 1000 nM) in the presence of anti-CD3/CD28 activators. After 3 days, the expression of CXCR3 on (A) CD3, (B) CD4, and (C) CD8 T cells was determined by flow cytometry.
T cells from in vitro primary murine T cell culture, fresh peripheral blood, or whole splenocytes were analyzed according to cell surface and intracellular markers. Surface markers were directly stained with flow antibodies for 20 min at 4 °C. For intracellular staining (FOXP3 and T-bet), cells were fixed and permeabilized after surface staining using appropriate buffers (One-step intracellular nuclear protein staining protocol, eBioscience, San Diego, CA, USA) and stained with flow antibodies. The antibodies used for flow cytometric analyses for mouse cells were as follows: FOXP3, T-BET, and CD183 (eBioscience, San Diego, CA, USA); CD3, H2-Kb, H2-Kd, CD4, B220, CD11b, CD11c, Ly6C, and DEC205 (BioLegend, San Diego, CA); and CD8, CD45.2, CD80, and Ly6G (BD Pharmingen, San Jose, CA, USA). All cells were run on a ZE5 Cell Analyzer (BD Biosciences, Mountain View, CA, USA) or Attune® NxT (Thermofisher Scientific, Waltham, MA, USA) and analyzed with the FlowJo software, version 10.9.0 (FlowJo LLC., Ashland, OR, USA). […]
On the technique in general: A flow cytometer gives signals particle by particle.

Assay [2] concerns GvHD. Put plainly: Preclinical mouse model of allo-HCT (GvHD). The conditions noted are these: for % of recipient and donor BM-derived APCs in spleens / % of CD80-expressing donor-derived APCs in spleens / % of Tregs in the spleens: 20 mg/kg s.c., day 6 after allo-HCT; for % of recipient and donor BM-derived APCs in spleens: vs control. The assay is classed as in vivo, Balb/c recipient mice. An excerpt:
To determine the potential of WU4 and WU8 in preventing GvHD, we performed allo-HCT in which 5 × 10^6 T cell-depleted bone marrow (TCD-BM; CD45.1+) and 5 × 10^5 splenic pan T cells (CD45.2+) obtained from B6 mice were transplanted into lethally irradiated (900 cGy on day −1) Balb/c allogeneic recipient mice on day 0. […]. […] Among monocyte subsets, we only considered classical (LyG6^−CD11b^+Ly6C^high) and intermediate monocytes (LyG6^−CD11b^+Ly6C^middle) as APCs, excluding non-classical monocytes (LyG6^−CD11b^+Ly6C^low) due to their anti-inflammatory function, which downregulates antigen presentation during inflammation. […]
Figure 5 In vivo administration of WU4 and WU8 reduces GvHD by increasing % of Tregs while suppressing % of APCs and costimulatory proteins on APCs after allo-HCT. Allo-HCT was performed as follows: 5 × 10^6 TCD-BM (CD45.1+) and 5 × 10^5 splenic T cells (CD45.2+) obtained from B6 mice were transplanted on day 0 into lethally irradiated (900 cGy on day −1) Balb/c allogeneic recipient mice. TCD-BM-only group served as a no-GvHD control. […] (A,B) The mice were monitored for survival and GvHD signs. (C–F) Whole splenocytes were analyzed for % of Tregs, recipient/BM-derived APCs, and CD80-expressing APCs on day 6 after allo-HCT. LyG6^−CD11b^+Ly6C^high and LyG6^−CD11b^+Ly6C^middle served as classical and intermediate monocyte subsets. NT: neutrophils. * p < 0.05, ** p < 0.01, and *** p < 0.001. All error bars are represented as mean ± standard deviation.
Allo-HCT was performed as previously described. Briefly, BALB/c mice were used as recipients and received 9 Gy total body irradiation on day −1, then were transplanted with 5 × 10^6 T cell-depleted bone marrow (TCD-BM) cells from B6 (CD45.1+) mice along with 0.5 × 10^6 splenic T cells from B6 (CD45.2+) mice on day 0. Mouse TCD-BM and splenic T cells were prepared using an EasySep mouse CD90.2 positive selection kit II and an EasySep mouse T cell isolation kit ([…] Technologies, Cambridge, MA, USA), respectively.
GvHD clinical scores were assessed twice per week by a scoring system incorporating five clinical criteria: weight loss (diarrhea scored 1 regardless of weight change), posture (hunching), mobility, fur texture, and skin integrity, as previously described. Individual mice were scored from 0 to 2 for each criterion and were sacrificed with GvHD scores of 6 or above, following our approved animal protocol.
T cells from in vitro primary murine T cell culture, fresh peripheral blood, or whole splenocytes were analyzed according to cell surface and intracellular markers. Surface markers were directly stained with flow antibodies for 20 min at 4 °C. For intracellular staining (FOXP3 and T-bet), cells were fixed and permeabilized after surface staining using appropriate buffers (One-step intracellular nuclear protein staining protocol, eBioscience, San Diego, CA, USA) and stained with flow antibodies. The antibodies used for flow cytometric analyses for mouse cells were as follows: FOXP3, T-BET, and CD183 (eBioscience, San Diego, CA, USA); CD3, H2-Kb, H2-Kd, CD4, B220, CD11b, CD11c, Ly6C, and DEC205 (BioLegend, San Diego, CA); and CD8, CD45.2, CD80, and Ly6G (BD Pharmingen, San Jose, CA, USA). All cells were run on a ZE5 Cell Analyzer (BD Biosciences, Mountain View, CA, USA) or Attune® NxT (Thermofisher Scientific, Waltham, MA, USA) and analyzed with the FlowJo software, version 10.9.0 (FlowJo LLC., Ashland, OR, USA).

The target in assay [3] is JAK2 (Homo sapiens, UniProt O60674). Put plainly: Z'-LYTE enzyme activity assay (SelectScreen Kinase Profiling), JAK2.
Chain of JAK2 (O60674 whole entry): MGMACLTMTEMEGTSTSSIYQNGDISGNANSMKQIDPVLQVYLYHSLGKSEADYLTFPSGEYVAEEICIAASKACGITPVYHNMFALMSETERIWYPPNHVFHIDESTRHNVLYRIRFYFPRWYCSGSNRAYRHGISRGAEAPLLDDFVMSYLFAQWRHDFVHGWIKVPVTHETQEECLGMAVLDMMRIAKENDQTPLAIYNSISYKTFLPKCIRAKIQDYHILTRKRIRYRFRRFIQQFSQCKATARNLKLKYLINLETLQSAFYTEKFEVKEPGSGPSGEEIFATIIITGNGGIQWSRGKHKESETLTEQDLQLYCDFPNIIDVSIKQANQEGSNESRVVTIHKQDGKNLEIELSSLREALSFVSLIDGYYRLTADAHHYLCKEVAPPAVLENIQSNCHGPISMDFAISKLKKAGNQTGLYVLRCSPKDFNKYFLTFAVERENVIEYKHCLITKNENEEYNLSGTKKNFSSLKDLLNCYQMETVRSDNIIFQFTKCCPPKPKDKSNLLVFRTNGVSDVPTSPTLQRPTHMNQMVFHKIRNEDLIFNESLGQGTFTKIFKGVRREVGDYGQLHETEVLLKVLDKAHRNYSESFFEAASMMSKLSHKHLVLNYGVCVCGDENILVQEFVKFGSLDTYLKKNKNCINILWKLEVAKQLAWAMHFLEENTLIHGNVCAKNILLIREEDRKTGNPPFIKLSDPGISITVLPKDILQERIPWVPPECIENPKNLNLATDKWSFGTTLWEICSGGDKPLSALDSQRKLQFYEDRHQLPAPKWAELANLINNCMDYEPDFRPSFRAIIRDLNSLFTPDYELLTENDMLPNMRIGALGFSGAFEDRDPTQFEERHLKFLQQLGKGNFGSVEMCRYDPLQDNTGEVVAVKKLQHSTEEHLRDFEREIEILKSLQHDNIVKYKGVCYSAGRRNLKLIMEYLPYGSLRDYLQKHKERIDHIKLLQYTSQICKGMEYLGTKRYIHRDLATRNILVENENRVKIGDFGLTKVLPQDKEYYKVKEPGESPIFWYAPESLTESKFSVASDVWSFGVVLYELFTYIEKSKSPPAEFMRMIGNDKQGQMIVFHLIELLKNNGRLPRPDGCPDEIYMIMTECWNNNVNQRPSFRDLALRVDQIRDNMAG
For assay [4], the target named is JAK1 (Homo sapiens, UniProt P23458). Put plainly: Z'-LYTE enzyme activity assay (SelectScreen Kinase Profiling), JAK1.
Chain of JAK1 (P23458 whole entry): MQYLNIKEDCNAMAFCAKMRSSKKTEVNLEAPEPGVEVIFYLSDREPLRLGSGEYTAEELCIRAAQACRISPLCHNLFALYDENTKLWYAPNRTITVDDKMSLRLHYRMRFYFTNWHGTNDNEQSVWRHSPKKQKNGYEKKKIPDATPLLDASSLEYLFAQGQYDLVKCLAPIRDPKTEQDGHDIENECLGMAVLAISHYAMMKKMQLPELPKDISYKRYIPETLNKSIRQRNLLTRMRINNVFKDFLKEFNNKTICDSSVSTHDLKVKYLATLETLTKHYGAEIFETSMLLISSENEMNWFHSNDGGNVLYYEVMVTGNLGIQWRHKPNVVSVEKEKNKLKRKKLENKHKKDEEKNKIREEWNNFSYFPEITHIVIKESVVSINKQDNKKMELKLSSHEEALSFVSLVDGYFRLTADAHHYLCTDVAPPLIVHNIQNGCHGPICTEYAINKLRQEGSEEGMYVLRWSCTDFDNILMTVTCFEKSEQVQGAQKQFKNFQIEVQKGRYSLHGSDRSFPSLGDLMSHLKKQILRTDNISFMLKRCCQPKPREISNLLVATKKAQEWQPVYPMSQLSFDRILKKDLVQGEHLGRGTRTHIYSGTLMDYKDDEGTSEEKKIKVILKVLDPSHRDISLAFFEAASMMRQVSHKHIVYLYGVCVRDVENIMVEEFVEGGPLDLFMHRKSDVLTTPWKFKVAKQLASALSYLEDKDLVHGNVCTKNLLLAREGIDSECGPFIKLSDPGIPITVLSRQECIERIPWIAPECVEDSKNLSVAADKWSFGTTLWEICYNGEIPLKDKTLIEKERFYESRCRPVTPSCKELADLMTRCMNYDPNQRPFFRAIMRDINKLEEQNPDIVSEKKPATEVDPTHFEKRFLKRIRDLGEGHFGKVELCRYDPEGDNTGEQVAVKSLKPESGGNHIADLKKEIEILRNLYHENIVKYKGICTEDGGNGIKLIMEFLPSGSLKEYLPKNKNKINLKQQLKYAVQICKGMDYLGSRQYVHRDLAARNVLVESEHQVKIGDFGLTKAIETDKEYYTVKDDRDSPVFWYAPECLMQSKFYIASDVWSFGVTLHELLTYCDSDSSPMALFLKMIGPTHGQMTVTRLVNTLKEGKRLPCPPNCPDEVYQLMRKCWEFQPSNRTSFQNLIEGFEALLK
[5] abbreviates: 20 mg/kg s.c. once daily for 3 weeks from day 3, vs vehicle control.
The mark [6] stands for this setting: dose not given, compared to WU4.
Where [7] appears, read: 4 mg/kg s.c. once daily for 3 weeks from day 3, vs vehicle control.

For the compound `CCS(=O)(=O)NC1CC2(C1)CC(CC#N)(n1cc(-c3ncnc4[nH]ccc34)cn1)C2` (stereo not drawn) [WU4], the “CXCR3 expression on T cells” value in assay [1] is given as “significant reductions in CXCR3 expression”. The “clinical GvHD scores” value in assay [2] (setting [5]) is given as “did not significantly improve GvHD”. Besides, the overall survival entry in assay [2] (setting [5]) is “failed to provide any survival benefits”. The “% of recipient and donor BM-derived APCs in spleens” value in assay [2] is reported as “reducing the % of donor-derived CD11b+ APCs”. In assay [2] (vs vehicle control), the “% of CD80-expressing donor-derived APCs in spleens” value is “reducing the % of donor-derived CD11b+ APCs and CD80-expressing B cells”. Moreover, the “% of Tregs in the spleens” value in assay [2] (vs vehicle control) was “significantly increasing the % of Tregs”. The IC50 (in general, the point on the concentration scale where inhibition reaches its midpoint) in assay [3] (IC50 JAK2, ATP at 1 mM) stood at 2260 pM; in assay [3] (IC50 JAK2, ATP at app. Km), 133 pM; in assay [4] (IC50 JAK1, ATP at 1 mM), 520 pM; in assay [4] (IC50 JAK1, ATP at app. Km), 453 pM.

With `N#CCC1(n2cc(-c3ncnc4[nH]ccc34)cn2)CC2(CC(NS(=O)(=O)C(F)(F)F)C2)C1` (stereo not drawn) [WU6], the “CXCR3 expression on T cells” value in assay [1] is reported as “significantly downregulated”. Besides, the “clinical GvHD scores” value in assay [2] (setting [6]) is given as “significantly less clinical GvHD scores”. In assay [2] (setting [6]), the overall survival entry is “improved overall survival”. In assay [2] (dose not given, day 27 after allo-HCT, compared to WU4), the “percentage of donor-BM-derived B and T cells in the PB” value is “increased percentage of donor-BM-derived B and T cells”. Further, the IC50 is 6960 pM in assay [3] (IC50 JAK2, ATP at 1 mM); 347 pM in assay [3] (IC50 JAK2, ATP at app. Km); 3430 pM in assay [4] (IC50 JAK1, ATP at 1 mM); 600 pM in assay [4] (IC50 JAK1, ATP at app. Km).

For the compound `N#CCC1(n2cc(-c3ncnc4[nH]ccc34)cn2)CCS(=O)(=O)CC1` [WU8], the “CXCR3 expression on T cells” value in assay [1] is on record as “significant reductions in CXCR3 expression”. Also, the “clinical GvHD scores” value in assay [2] (setting [7]) is “less GvHD”; in assay [2] (setting [5]), “improved clinical GvHD scores”. The overall survival entry is “mild trend towards improved survival” in assay [2] (setting [7]) and “significantly increased overall survival” in assay [2] (setting [5]). For the same compound, the “% of recipient and donor BM-derived APCs in spleens” value in assay [2] is “reduced the % of both the residual recipient and donor BM-derived APCs”. For the same compound, in assay [2] (vs vehicle control), the “% of CD80-expressing donor-derived APCs in spleens” value was “decreased”. For the same compound, in assay [2] (vs vehicle control), the “% of Tregs in the spleens” value is listed as “trend towards higher frequencies of Tregs”. Also, the IC50 in assay [3] (IC50 JAK2, ATP at 1 mM) was 14900 pM; in assay [3] (IC50 JAK2, ATP at app. Km), 535 pM; in assay [4] (IC50 JAK1, ATP at 1 mM) it was 7150 pM; in assay [4] (IC50 JAK1, ATP at app. Km), 1070 pM.
